Laboratory results reported in US20250051275A1, “PYRROLE DERIVATIVE OR PHARMACEUTICALLY OR SITOLOGICALLY ACCEPTABLE SALTS THEREOF, AND COMPOSITION FOR PREVENTION, AMELIORATION OR TREATMENT OF GASTROINTESTINAL DISORDERS COMPRISING SAME AS ACTIVE INGREDIENT” (HANA PHARM CO., LTD., priority 2021, published 2025).

What was measured:
[1] = tested on: Human gastric cancer cells (MKN-45 Cell); experiment: Anticancer efficacy in xenograft mouse model; assay type: in vivo, nude mice; conditions: 10 mg/kg oral once/day, Day 12, MKN-45 xenograft
Method: This study was conducted to evaluate the anticancer efficacy of the compound of Example 15 of the present invention in a xenograft tumor model. Human gastric cancer cells (MKN-45 Cell) were purchased from the Korea Cell Line Bank and cultured in a 5% CO2 incubator at 37° C. by using an RPMI 1640 medium containing 1% penicillin-streptomycin and 10% fetal bovine serum. The cultured cells were separated using 0.25% Trypsin-0.02% EDTA every 3 to 4 days and then subcultured. Cells. Four-week-old female nude mice were purchased, and after a one-week acclimatization period in a laboratory environment, the nude mice that reached 5 weeks of age were used in the experiment. MKN-45 cells were made into a single cell suspension by using Matrigel and DPBS, and implanted subcutaneously into nude mice at a concentration of 1×10^7 cells per mouse. One week after MKN-45 cell transplantation, experimental animals with tumors with a specific size were selected and divided into 3 groups with 10 animals per group. The compound of Example 7 was administered orally at administration concentrations of 10 mg/kg and 30 mg/kg, and the experiment was conducted for 12 days.
The size of the tumor was calculated using the formula ‘short axis×short axis×long axis/2,’ and the results of the changes in tumor size change are illustrated in FIG. 2.

[2] = Pharmacokinetic profile in beagles, single oral dose; assay type: in vivo, beagle dogs; conditions: male, dog, plasma, beagle, mean n=3
Method: (§1) A total of 18 male beagle dogs (Marshall Beagle, Beijing) with an average weight of 9 to 11 kg were obtained, acclimatized, and distributed into a total of 6 groups, 3 dogs per test group. During the entire experiment, all beagle dogs were supplied with standardized solid food and water. The breeding room was kept under controlled and monitored conditions, while maintaining a temperature of 18° C. to 26° C., a humidity of 40% to 70%, and a light-dark cycle of 12 hours-12 hours.
(§2) The test group consisted of beagle dogs that were orally administered the vehicle as the vehicle group, beagle dogs that were orally administered control drug 1 (vonoprazan) as the comparison group, and administration group was beagle dogs orally administered with Example 7.
Blood samples were obtained from peripheral veins at 30 minutes, 1 hour, 2.5 hours, 4.5 hours, 7.5 hours, 25.5 hours, and 49.5 hours after drug administration, respectively. Blood samples were centrifuged (2 to […], 3,200 g, 10 minutes) to obtain plasma. The amount of the administered compound into the plasma samples was quantified by using LC-MS/MS. Pharmacokinetic parameters were obtained by using a non-compartmental model in Phoenix WinNonlin 6.3 software. ‘AUC0-last’ indicates the area under the time curve, ‘Cmax’ indicates the highest plasma concentration, ‘ Tmax’ indicates the time to reach the highest plasma concentration, and ‘T1/2’ indicates the half-life.

pH of gastric juice = experiment: Pharmacodynamic profile (pH of gastric juice) in beagles after histamine; assay type: in vivo, beagle dogs; conditions: beagle
Method: as §1, §2
To measure the neutralizing power of gastric acid for drug efficacy evaluation, each dose of the compound was administered to each group. Then, histamine dihydrochloride at 0.03 mg/kg was administered subcutaneously 1, 3, 6, 24, and 48 hours after compound administration. The pH of the gastric juice was measured 0, 2.5, 4.5, 7.5, 25.5, and 49.5 hours after compound administration.

SMILES: [2H]C([2H])([2H])NCc1cc(-c2ccccc2F)n(S(=O)(=O)c2ccc(F)cc2)c1 [Example 7, N-((5-(2-fluorophenyl)-1-((4-fluorophenyl)sulfonyl)-1H-pyrrol-3-yl)methyl)methan-d3-amine]
- tumor size reduced as compared to the Control group (vehicle) [1]: 42%
- AUC(0-t) ([2]; oral single dose 0.1 mg/kg): 99.4 ng·h/mL
- Cmax ([2]; oral single dose 0.1 mg/kg): 32.3 ng/mL
- Tmax ([2]; oral single dose 0.1 mg/kg): 0.833 h
- half-life ([2]; oral single dose 0.1 mg/kg): 1.67 h
- AUC(0-t) ([2]; oral single dose 0.3 mg/kg): 808 ng·h/mL
- Cmax ([2]; oral single dose 0.3 mg/kg): 165 ng/mL
- Tmax ([2]; oral single dose 0.3 mg/kg): 1 h
- half-life ([2]; oral single dose 0.3 mg/kg): 2.93 h
- AUC(0-t) ([2]; oral single dose 1 mg/kg): 2890 ng·h/mL
- Cmax ([2]; oral single dose 1 mg/kg): 397 ng/mL
- Tmax ([2]; oral single dose 1 mg/kg): 1 h
- half-life ([2]; oral single dose 1 mg/kg): 3.03 h
- AUC(0-t) ([2]; oral single dose 3 mg/kg): 19200 ng·h/mL
- Cmax ([2]; oral single dose 3 mg/kg): 1430 ng/mL
- Tmax ([2]; oral single dose 3 mg/kg): 2.17 h
- half-life ([2]; oral single dose 3 mg/kg): 4.29 h
- Average pH of gastric juice (pH of gastric juice; oral 0.1 mg/kg, 0 h): 6.8
- Average pH of gastric juice (pH of gastric juice; oral 0.1 mg/kg, 2.5 h): 3.3
- Average pH of gastric juice (pH of gastric juice; oral 0.1 mg/kg, 4.5 h): 6.5
- Average pH of gastric juice (pH of gastric juice; oral 0.1 mg/kg, 7.5 h): 6.0
- Average pH of gastric juice (pH of gastric juice; oral 0.1 mg/kg, 25.5 h): 2.7
- Average pH of gastric juice (pH of gastric juice; oral 0.1 mg/kg, 49.5 h): 2.4
- Average pH of gastric juice (pH of gastric juice; oral 0.3 mg/kg, 0 h): 7.2
- Average pH of gastric juice (pH of gastric juice; oral 0.3 mg/kg, 2.5 h): 6.7
- Average pH of gastric juice (pH of gastric juice; oral 0.3 mg/kg, 4.5 h): 7.0
- Average pH of gastric juice (pH of gastric juice; oral 0.3 mg/kg, 7.5 h): 6.5
- Average pH of gastric juice (pH of gastric juice; oral 0.3 mg/kg, 25.5 h): 2.3
- Average pH of gastric juice (pH of gastric juice; oral 0.3 mg/kg, 49.5 h): 2.8
- Average pH of gastric juice (pH of gastric juice; oral 1 mg/kg, 0 h): 5.7
- Average pH of gastric juice (pH of gastric juice; oral 1 mg/kg, 2.5 h): 7.2
- Average pH of gastric juice (pH of gastric juice; oral 1 mg/kg, 4.5 h): 6.7
- Average pH of gastric juice (pH of gastric juice; oral 1 mg/kg, 7.5 h): 6.2
- Average pH of gastric juice (pH of gastric juice; oral 1 mg/kg, 25.5 h): 3.0
- Average pH of gastric juice (pH of gastric juice; oral 1 mg/kg, 49.5 h): 2.3
- Average pH of gastric juice (pH of gastric juice; oral 3 mg/kg, 0 h): 6.0
- Average pH of gastric juice (pH of gastric juice; oral 3 mg/kg, 2.5 h): 7.3
- Average pH of gastric juice (pH of gastric juice; oral 3 mg/kg, 4.5 h): 7.0
- Average pH of gastric juice (pH of gastric juice; oral 3 mg/kg, 7.5 h): 6.3
- Average pH of gastric juice (pH of gastric juice; oral 3 mg/kg, 25.5 h): 6.2
- Average pH of gastric juice (pH of gastric juice; oral 3 mg/kg, 49.5 h): 3.0
